Test results from patent publication US20200113852A1, “METHODS OF PATIENT SELECTION AND TREATING TRXR- OR PRDX-OVEREXPRESSED CANCERS” (TRIACT THERAPEUTICS, INC., priority 2017, published 2020).
Where two headings read alike, the source gives them in different places.

Tests used:
MDA-MB-231 cells = assay: ROS production (CellROXOrange); type: cell-based, human; details: GSH-depleted MDA-MB-231, 100 μM, 4 h
ΔSec human TrxR1 = target: T1, ΔSec human TrxR1 (Homo sapiens, UniProt Q16881); assay: Electron paramagnetic resonance, DEPMPO spin trapping; type: biochemical; details: ΔSec-TrxR1, absence of auranofin
T1 construct: purchased Abnova

HCT116 cells = assay: Iniparib metabolites release, XLC-MS/MS of incubation media; type: in vitro ADME, human; design: unit not given beside the values
Experimental: (§1) Online solid phase extraction (SPE) was performed using the fully automated Spark Holland Symbiosis™ (Emmen, The Netherlands) in eXtraction Liquid Chromatography (XLC) mode. The Symbiosis™ has previously been described in detail (18). HySphere™ C18 HD 7 μm SPE cartridges were used (Spark Holland). Each cartridge was initially conditioned with 2 ml methanol+0.5% formic acid (FA) and then equilibrated with 2 ml water+0.5% FA, both at flow-rates of 4 ml/min. Sample (25 μl) was aspirated and loaded onto the cartridge with 1 ml water+0.5% FA at a flow-rate of 1 ml/min. […] After elution, the right clamp was washed successively with 2 ml water+0.5% FA, 2 ml methanol+0.5% FA and 2 ml water+0.5% FA at 4 ml/min. […] The mobile phase composition was returned to starting conditions over 1 min and maintained during 6 min for column equilibration. The total run time was 27 min. Mass spectrometry was performed using the Thermo® TSQ Quantum Discovery Max in electrospray positive ionization mode (Thermo, US) with the following parameters: capillary voltage=4.0 kV, capillary temperature=300° C., sheath gas pressure=40, auxiliary gas pressure=5.
(§2) All values are expressed as means±SEM of three independent experiments. ND., non detectable.

MDA-MB-453 cells = assay: as above; type: in vitro ADME, human; design: unit not given beside the values
Experimental: as §1, §2

[1] = Phase I clinical trial GBM, pharmacokinetics; type: in vivo, human; details: human, geometric mean±SD, plasma, read-out: Cmax
Source text: No cytochrome P450-inducing anticonvulsants. However, Gliadel was permitted.
Dosing is IV 2×/week continuous.

[2] = Phase II clinical trial GBM, toxicity and tolerability
TrxR1 = target: T2, TrxR1 (Homo sapiens, UniProt Q16881); assay: In vitro Iniparib-biotin TrxR adduct formation on immunoprecipitated TrxR with or without NADPH; type: binding
T2 sequence (Q16881 1-499 isoform Q16881-5): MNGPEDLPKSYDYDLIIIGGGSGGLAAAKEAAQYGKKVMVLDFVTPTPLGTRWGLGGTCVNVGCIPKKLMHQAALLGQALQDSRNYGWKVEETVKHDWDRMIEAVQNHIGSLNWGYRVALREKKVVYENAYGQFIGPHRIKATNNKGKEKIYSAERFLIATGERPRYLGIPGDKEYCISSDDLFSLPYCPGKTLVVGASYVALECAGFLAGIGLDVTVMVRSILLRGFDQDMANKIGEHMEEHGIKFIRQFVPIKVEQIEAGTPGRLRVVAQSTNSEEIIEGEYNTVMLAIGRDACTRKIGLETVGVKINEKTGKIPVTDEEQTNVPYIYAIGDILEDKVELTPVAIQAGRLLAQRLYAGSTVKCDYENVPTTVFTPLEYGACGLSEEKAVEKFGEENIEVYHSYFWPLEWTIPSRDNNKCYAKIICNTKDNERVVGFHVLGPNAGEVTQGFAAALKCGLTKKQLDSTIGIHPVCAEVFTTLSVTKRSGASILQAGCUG

SMILES: NC(=O)c1ccc(I)c([N+](=O)[O-])c1 [Iniparib, 4-iodo-3-nitrobenzamide]
- ROS (MDA-MB-231 cells): accumulation of ROS
- DEPMPO/HOO• adduct signal (ΔSec human TrxR1): increase
- DEPMPO/HO• adduct signal (ΔSec human TrxR1): modest increase
- Iniparib and metabolites in incubation media (HCT116 cells; HCT116 w BSO, 1 h after 100 μM Iniparib): 87.6 ± 3.5
- Iniparib and metabolites in incubation media (HCT116 cells; HCT116 w BSO, 5 h after 100 μM Iniparib): 84.5 ± 6.7
- Iniparib and metabolites in incubation media (HCT116 cells; HCT116 w BSO, 24 h after 100 μM Iniparib): 72.9 ± 7.4
- Iniparib and metabolites in incubation media (HCT116 cells; HCT116 w/o BSO, 1 h after 100 μM Iniparib): 59.2 ± 0.6
- Iniparib and metabolites in incubation media (HCT116 cells; HCT116 w/o BSO, 5 h after 100 μM Iniparib): 8.9 ± 0.4
- Iniparib and metabolites in incubation media (MDA-MB-453 cells; MDA-MB-453 w BSO, 1 h after 100 μM Iniparib): 91.4 ± 5.1
- Iniparib and metabolites in incubation media (MDA-MB-453 cells; MDA-MB-453 w BSO, 5 h after 100 μM Iniparib): 88.9 ± 10.2
- Iniparib and metabolites in incubation media (MDA-MB-453 cells; MDA-MB-453 w BSO, 24 h after 100 μM Iniparib): 74.2 ± 10.8
- Iniparib and metabolites in incubation media (MDA-MB-453 cells; MDA-MB-453 w/o BSO, 1 h after 100 μM Iniparib): 87.1 ± 1.3
- Iniparib and metabolites in incubation media (MDA-MB-453 cells; MDA-MB-453 w/o BSO, 5 h after 100 μM Iniparib): 64.0 ± 8.8
- Iniparib and metabolites in incubation media (MDA-MB-453 cells; MDA-MB-453 w/o BSO, 24 h after 100 μM Iniparib): 12.2 ± 4.3
- Cmax ([1]; 5.1 mg/kg IV 2×/week): 642 ± 315 ng/mL
- Cmax ([1]; 6.1 mg/kg IV 2×/week): 928 ± 397 ng/mL
- Cmax ([1]; 6.8 mg/kg IV 2×/week): 1020 ng/mL
- Cmax ([1]; 8.0 mg/kg IV 2×/week): 3690 ng/mL
- Cmax ([1]; 8.6 mg/kg IV 2×/week): 1520 ng/mL
- Cmax ([1]; 9.5 mg/kg IV 2×/week): 2140 ng/mL
- Acute kidney injury ([2]; Grade 3): 1 (1) N (%)
- Anemia ([2]; Grade 3): 2 (2) N (%)
- Atrial fibrillation ([2]; Grade 3): 1 (1) N (%)
- Bronchial infection ([2]; Grade 3): 1 (1) N (%)
- Cognitive disturbance ([2]; Grade 3): 1 (1) N (%)
- Confusion ([2]; Grade 3): 1 (1) N (%)
- Dehydration ([2]; Grade 3): 1 (1) N (%)
- Dizziness ([2]; Grade 3): 1 (1) N (%)
- Dysphasia ([2]; Grade 3): 1 (1) N (%)
- Fatigue ([2]; Grade 3): 4 (5) N (%)
- Generalized muscle weakness ([2]; Grade 3): 2 (2) N (%)
- Headache ([2]; Grade 3): 1 (1) N (%)
- Hyperkalemia ([2]; Grade 3): 1 (1) N (%)
- Hypokalemia ([2]; Grade 3): 1 (1) N (%)
- Hypotension ([2]; Grade 3): 1 (1) N (%)
- Hypoxia ([2]; Grade 3): 1 (1) N (%)
- Lymphocyte count decreased ([2]; Grade 3): 4 (5) N (%)
- Nausea ([2]; Grade 3): 2 (2) N (%)
- Neutrophil Count Decreased ([2]; Grade 3): 3 (4) N (%)
- Platelet Count Decreased ([2]; Grade 3): 4 (5) N (%)
- Rash maculo-papular ([2]; Grade 3): 3 (4) N (%)
- Skin and subcutaneous tissue disorders ([2]; Grade 3): 1 (1) N (%)
- Vomiting ([2]; Grade 3): 1 (1) N (%)
- White Blood Cell Decreased ([2]; Grade 3): 5 (6) N (%)
- Alanine aminotransferase increased ([2]; Grade 4): 1 (1) N (%)
- Aspartate aminotransferase increased ([2]; Grade 4): 1 (1) N (%)
- Flushing ([2]; Grade 4): 1 (1) N (%)
- Hypertension ([2]; Grade 4): 1 (1) N (%)
- Neutrophil Count Decreased ([2]; Grade 4): 5 (6) N (%)
- Platelet Count Decreased ([2]; Grade 4): 11 (13) N (%)
- White Blood Cell Decreased ([2]; Grade 4): 3 (4) N (%)
- Acute kidney injury ([2]; Total): 1 (1) N (%)
- Alanine aminotransferase increased ([2]; Total): 1 (1) N (%)
- Anemia ([2]; Total): 2 (2) N (%)
- Aspartate aminotransferase increased ([2]; Total): 1 (1) N (%)
- Atrial fibrillation ([2]; Total): 1 (1) N (%)
- Bronchial infection ([2]; Total): 1 (1) N (%)
- Cognitive disturbance ([2]; Total): 1 (1) N (%)
- Confusion ([2]; Total): 1 (1) N (%)
- Dehydration ([2]; Total): 1 (1) N (%)
- Dizziness ([2]; Total): 1 (1) N (%)
- Dysphasia ([2]; Total): 1 (1) N (%)
- Fatigue ([2]; Total): 4 (5) N (%)
- Flushing ([2]; Total): 1 (1) N (%)
- Generalized muscle weakness ([2]; Total): 2 (2) N (%)
- Headache ([2]; Total): 1 (1) N (%)
- Hyperkalemia ([2]; Total): 1 (1) N (%)
- Hypertension ([2]; Total): 1 (1) N (%)
- Hypokalemia ([2]; Total): 1 (1) N (%)
- Hypotension ([2]; Total): 1 (1) N (%)
- Hypoxia ([2]; Total): 1 (1) N (%)
- Lymphocyte count decreased ([2]; Total): 4 (5) N (%)
- Nausea ([2]; Total): 2 (2) N (%)
- Neutrophil Count Decreased ([2]; Total): 8 (10) N (%)
- Platelet Count Decreased ([2]; Total): 15 (18) N (%)
- Rash maculo-papular ([2]; Total): 3 (4) N (%)
- Skin and subcutaneous tissue disorders ([2]; Total): 1 (1) N (%)
- Vomiting ([2]; Total): 1 (1) N (%)
- White Blood Cell Decreased ([2]; Total): 8 (10) N (%)
- well tolerated dose ([2]; with adjuvant TMZ): 17.2 mg/kg weekly
- well tolerated dose ([2]; with radiation and TMZ): 16 mg/kg weekly

SMILES: O=C(CCCC[C@@H]1SC[C@@H]2NC(=O)N[C@@H]21)NCCNC(=O)c1ccc(I)c([N+](=O)[O-])c1 [Iniparib-biotin, 4-iodo-3-nitro-N-(2-(5-((3 aS,4S,6aR)-2-oxohexahydro-1H-thieno[3,4-d]imidazol-4-yl)pentanamido)ethyl)benzamide]
- adduct formation with TrxR1 (TrxR1; NADPH provided): able to form adducts with TrxR1 to a large extent
- covalent labeling of TrxR1 (TrxR1; absence of NADPH): almost no covalent labeling
